What is called melting point is the temperature, or range, at which the solid turns liquid.

Molecule `Cc1cc(C(F)(F)F)nn1CC(=O)N1CCC(c2csc(NC(=O)Cc3c(F)cccc3Cl)n2)CC1` [I.as.001, 2-(2-chloro-6-fluoro-phenyl)-N-(4-{1-[2-(5-methyl-3-trifluoromethyl-pyrazol-1-yl)-acetyl]-piperidin-4-yl}-thiazol-2-yl)-acetamide] gave a melting point of 249 to 251 °C.

The values are drawn from patent US20140228372A1 (priority 2011, published 2014).
